Here are results for 36 molecules from patent US8097759B2, “Inflammatory cytokine release inhibitor” (Institute of Medicinal Molecular Design, Inc., priority 2000, dated 2012).

Where two headings read alike, the source gives them in different places.

For the test, the system named is NF-κB activation. The test can be described thus: NF-κB activation reporter assay (pNFκB-Luc luciferase) under TNF-α stimulation. Format: cell-based, human. Conditions: for inhibition at 1 µg/mL / inhibition at 10 µg/mL: Homo sapiens, read-out: The rate of inhibitory activity against NF-κB activation (%). The method, then: Using a transfection reagent (Effectene; QIAGEN), the human hepatoma cell strain HepG2 or the human hysterocarcinoma cell strain HeLa was transfected with the firefly luciferase gene (Luc) contained plasmid (pNF κB-Luc Reporter Plasmid; […]) which contained oligonucleotide having five tandem copies of NF-κB binding sequences ([…]) on a upstream region of Luc, according to the QUAGEN's protocol and it was incuvated for 6-24 hours. After addition of TNF-α (40 ng/ml) with or without the test compound, the cells were incuvated for 4 hours, and intracellular luciferase activity was measured with PicaGene LT (TOYO INK MFG Co., Ltd.) and chemical luminescence measurement device ([…]luor Plus; TECAN). The inhibition ratio was measured as a ratio to the value of the luciferase activity without the test compound.
For orientation: Reporter assays use an easily measured gene product as a stand-in for the process of interest.

The mark [1] stands for this setting: Concentration of the agent: 1 μg/mL, HepG2 or HeLa cells, TNF-α 40 ng/ml, 4 hours.
Where [2] appears, read: Concentration of the agent: 10 μg/mL, HepG2 or HeLa cells, TNF-α 40 ng/ml, 4 hours.

For the molecule `CN(C(=O)c1cc(Cl)ccc1O)c1cc(C(F)(F)F)cc(C(F)(F)F)c1` [Compound 16, N-[3,5-Bis(trifluoromethyl)phenyl]-5-chloro-2-hydroxy-N-methylbenzamide], under setting [1], the inhibition at 1 µg/mL amounted to 36.4%. For the same molecule, the inhibition at 10 µg/mL under setting [2] came out at 91.6%.

On to `O=C(c1cc(Br)ccc1O)N1CCCc2ccc(C(F)(F)F)cc21` [Compound 17, 1-(5-Bromo-2-hydroxy)benzoyl-7-(trifluoromethyl)-1,2,3,4-tetrahydroquinoline], for which the “The rate of inhibitory activity against NF-κB activation (%)” value (“The rate of inhibitory activity … (%)” below) was 19.9% under setting [1] and 96.5% under setting [2].

As for `O=C(Nc1cc(Cl)cc(Cl)c1)c1c(O)ccc2ccccc12` [Compound 18, N-(3,5-Dichlorophenyl)-2-hydroxy-1-naphthamide], the inhibition at 1 µg/mL under setting [1] was found to be 85.3%. For the same molecule, the inhibition at 10 µg/mL under setting [2] turned out to be 90.2%.

On to `O=C(Nc1cc(Cl)cc(Cl)c1)c1cc2ccccc2cc1O` [Compound 19, N-(3,5-Dichlorophenyl)-3-hydroxy-2-naphthamide], for which the inhibition at 1 µg/mL under setting [1] is -55.4%. Besides, the inhibition at 10 µg/mL under setting [2] worked out at 95.1%.

Turning to `COc1cc(NC(=O)c2cc3ccccc3cc2O)cc(OC)c1` [Compound 20, N-(3,5-Dimethoxyphenyl)-3-hydroxy-2-naphthamide], the inhibition at 1 µg/mL under setting [1] is -12.1%. For the same molecule, the inhibition at 10 µg/mL under setting [2] came to 86.8%.

`O=C(Nc1cc(C(F)(F)F)cc(C(F)(F)F)c1)c1ccc2ccccc2c1O` [Compound 21, N-[3,5-Bis(trifluoromethyl)phenyl]-1-hydroxy-2-naphthamide]: the inhibition at 1 µg/mL under setting [1] turned out to be 89.6%. Further, the inhibition at 10 µg/mL under setting [2] stood at 95%.

On to `O=C(Nc1ccc(S(=O)(=O)F)cc1)c1ccc2ccccc2c1O` [Compound 22, {[(1-Hydroxynaphthalen-2-yl)carbonyl]amino}benzenesulfonyl fluoride], for which the “The rate of inhibitory activity … (%)” value is recorded as 37.0% under setting [1] and 92.9% under setting [2].

Consider `O=C(Nc1ccc(S(=O)(=O)F)cc1)c1cc(N=Nc2cc(Cl)ccc2Cl)c2ccccc2c1O` [Compound 23, 4-({[4-(2,5-Dichlorophenyl)azo-1-hydroxynaphthalen-2-yl]-carbonyl}amino)benzenesulfonyl fluoride], for which, for the setting “4 h”, the inhibition at 1 µg/mL worked out at 75.7% and the inhibition at 10 µg/mL was found to be 96.6%.

In the case of `O=C(Nc1cc(C(F)(F)F)cc(C(F)(F)F)c1)c1cc(Cl)cnc1O` [Compound 24, N-[3,5-Bis(trifluoromethyl)phenyl]-5-chloro-2-hydroxypyridine-3-carboxamide], under setting [1], the inhibition at 1 µg/mL was found to be 58.1%. Further, the inhibition at 10 µg/mL under setting [2] came out at 82.2%.

Take `O=C(Nc1cc(C(F)(F)F)ccc1Cl)c1cc(Cl)cnc1O` [Compound 25, N-[2-Chloro-5-(trifluoromethyl)phenyl]-5-chloro-2-hydroxynicotinamide]: the inhibition at 1 µg/mL under setting [1] was determined as 85.4%. Under setting [2], the inhibition at 10 µg/mL stood at 86.9%.

As to `O=C(Nc1cc(C(F)(F)F)cc(C(F)(F)F)c1)c1ncccc1O` [Compound 27, N-[3,5-Bis(trifluoromethyl)phenyl]-3-hydroxypyridine-2-carboxamide], the inhibition at 1 µg/mL under setting [1] was determined as 68.5%. Further, the inhibition at 10 µg/mL under setting [2] turned out to be 47.3%.

`O=C(Nc1cc(C(F)(F)F)cc(C(F)(F)F)c1)c1c(O)[nH]c2cc(Cl)ccc12` [Compound 28, N-[3,5-Bis(trifluoromethyl)phenyl]-6-chloro-2-hydroxyindole-3-carboxamide]: under setting [1], the inhibition at 1 µg/mL was found to be 16.3%. Moreover, the inhibition at 10 µg/mL under setting [2] was 41.7%.

With `O=C(Nc1cc(C(F)(F)F)cc(C(F)(F)F)c1)c1nc2ccccc2nc1O` [Compound 29, N-[3,5-Bis(trifluoromethyl)phenyl]-3-hydroxyquinoxaline-2-carboxamide], the inhibition at 1 µg/mL under setting [1] turned out to be 46.3%. Also, under setting [2], the inhibition at 10 µg/mL came to 73%.

On to `O=C(Nc1ccc(Cl)cc1)c1cc2c(cc1O)[nH]c1ccccc12` [Compound 30, N-(4-Chlorophenyl)-2-hydroxy-9H-carbazole-3-carboxamide], for which the inhibition at 1 µg/mL under setting [1] stood at 76.5%. The inhibition at 10 µg/mL under setting [2] was determined as 98.1%.

As for `O=C(Nc1cccc2ccccc12)c1ccccc1O` [Compound 31, 2-Hydroxy-N-(1-naphthyl)benzamide], under setting [1], the inhibition at 1 µg/mL is 13.3%. Moreover, the inhibition at 10 µg/mL under setting [2] came out at 93.2%.

As for `O=C(Nc1cccc2ccccc12)c1cc(Cl)ccc1O` [Compound 32, 5-Chloro-2-hydroxy-N-(1-naphthyl)benzamide], the inhibition at 1 µg/mL under setting [1] was found to be 89.3%. Further, the inhibition at 10 µg/mL under setting [2] worked out at 96.3%.

Take `COc1cc(NC(=O)c2cc(Cl)ccc2O)cc2ccccc12` [Compound 33, 5-Chloro-2-hydroxy-N-(4-methoxynaphthalen-2-yl)benzamide]: the inhibition at 1 µg/mL under setting [1] stood at 95.1%. For the same molecule, under setting [2], the inhibition at 10 µg/mL amounted to 99.5%.

With `COc1cc(NC(=O)c2cc(Cl)ccc2OC(C)=O)cc2ccccc12` [Compound 34, 2-Acetoxy-5-Chloro-N-(4-methoxynaphthalen-2-yl)benzamide], the inhibition at 1 µg/mL under setting [1] was determined as 90.5%. Besides, under setting [2], the inhibition at 10 µg/mL was 98.5%.

For the molecule `CCOC(=O)c1c(NC(=O)c2cc(Cl)ccc2O)sc2c1CCCC2` [Compound 35, 2-(5-Chloro-2-hydroxybenzoyl)amino-4,5,6,7-tetrahydrobenzo[b]-thiophene-3-carboxylic acid ethyl ester], the inhibition at 1 µg/mL under setting [1] turned out to be 88.2%. Besides, the inhibition at 10 µg/mL under setting [2] came to 85.4%.

`O=C(Nc1cc(-c2ccccc2)[nH]n1)c1cc(Br)ccc1O` [Compound 36, 5-Bromo-2-hydroxy-N-(5-phenylpyrazol-3-yl)benzamide]: under setting [1], the inhibition at 1 µg/mL was 26.6%. The inhibition at 10 µg/mL under setting [2] was 84.7%.

Turning to `O=C(Nc1nc(-c2ccccc2)c(-c2ccccc2)o1)c1cc(Br)ccc1O` [Compound 38, 5-Bromo-N-(4,5-diphenyloxazol-2-yl)-2-hydroxybenzamide], the inhibition at 1 µg/mL under setting [1] is -10.1%. Also, under setting [2], the inhibition at 10 µg/mL is 81.8%.

`O=C(Nc1nnc(C(F)(F)F)s1)c1ccccc1O` [Compound 40, 2-Hydroxy-N-5-[(trifluoromethyl)-1,3,4-thiadiazol-2-yl]benzamide]: the “The rate of inhibitory activity … (%)” value under setting [1] is 3.9% and the “The rate of inhibitory activity … (%)” value under setting [2] is listed as 81.9%.

Turning to `O=C(Nc1nnc(C(F)(F)F)s1)c1cc(Br)ccc1O` [Compound 41], the “The rate of inhibitory activity … (%)” value by setting is: under setting [1], 26.1%; under setting [2], 90.3%.

`O=C(Nc1ccnc(Cl)c1)c1cc(Cl)ccc1O` [Compound 42, 5-Chloro-N-(2-chloropyridin-4-yl)-2-hydroxybenzamide]: the inhibition at 1 µg/mL under setting [1] worked out at 14.3%. Moreover, the inhibition at 10 µg/mL under setting [2] came to 92.3%.

For the molecule `COc1cc(Cl)nc(NC(=O)c2cc(Cl)ccc2O)n1` [Compound 43, 5-Chloro-N-(6-chloro-4-methoxypyrimidin-2-yl)-2-hydroxybenzamide], the inhibition at 1 µg/mL under setting [1] came to 25.5%. In addition, the inhibition at 10 µg/mL under setting [2] came to 78.9%.

Take `CC(=O)Oc1ccc(Cl)cc1C(=O)Nc1cc2ccccc2[nH]1` [Compound 44, 2-Aceoxy-5-chloro-N-(indol-2-yl)benzamide]: the “The rate of inhibitory activity … (%)” value turned out to be 36.7% under setting [1] and 65.8% under setting [2].

Take `CCOC(=O)c1c[nH]c2c(NC(=O)c3ccccc3OC(C)=O)cccc12` [Compound 45, 7-[(2-Acetoxybenzoyl)amino]indole-3-carboxylic acid ethyl ester]: the inhibition at 1 µg/mL under setting [1] worked out at 61.7%. The inhibition at 10 µg/mL under setting [2] stood at 91.3%.

Take `O=C(Nc1cnc2ccccc2c1)c1cc(Cl)ccc1O` [Compound 46, 5-Chloro-2-hydroxy-N-(quinolin-3-yl)benzamide]: under setting [1], the inhibition at 1 µg/mL was -43.7%. Also, the inhibition at 10 µg/mL under setting [2] stood at 85.7%.

In the case of `CCn1c2ccccc2c2cc(NC(=O)c3cc(Cl)ccc3O)ccc21` [Compound 47, N-(9-Ethylcarbazol-3-yl)-5-chloro-2-hydroxybenzamide], the inhibition at 1 µg/mL under setting [1] is 91.3%. The inhibition at 10 µg/mL under setting [2] was found to be 99.4%.

With `O=C(Nc1cc(C(F)(F)F)cc(C(F)(F)F)c1)c1ccccc1O` [Compound 48], the inhibition at 1 µg/mL under setting [1] is 93.3%. In addition, the inhibition at 10 µg/mL under setting [2] amounted to 95.6%.

In the case of `O=C(Nc1cc(C(F)(F)F)cc(C(F)(F)F)c1)c1cc(F)ccc1O` [Compound 49], under setting [1], the inhibition at 1 µg/mL is 81.5%. For the same molecule, under setting [2], the inhibition at 10 µg/mL came to 94.3%.

Turning to `O=C(Nc1cc(C(F)(F)F)cc(C(F)(F)F)c1)c1cc(Cl)ccc1O` [Compound 50], the inhibition at 1 µg/mL under setting [1] turned out to be 96.3%. For the same molecule, under setting [2], the inhibition at 10 µg/mL stood at 99.5%.

On to `O=C(Nc1cc(C(F)(F)F)cc(C(F)(F)F)c1)c1cc(Br)ccc1O` [Compound 51], for which, under setting [1], the inhibition at 1 µg/mL was found to be 94.9%. Moreover, the inhibition at 10 µg/mL under setting [2] turned out to be 98.6%.

Take `O=C(Nc1cc(C(F)(F)F)cc(C(F)(F)F)c1)c1cc([N+](=O)[O-])ccc1O` [Compound 53]: under setting [1], the inhibition at 1 µg/mL is 92%. Besides, the inhibition at 10 µg/mL under setting [2] was found to be 99.2%.

With `Cc1ccc(O)c(C(=O)Nc2cc(C(F)(F)F)cc(C(F)(F)F)c2)c1` [Compound 55], under setting [1], the inhibition at 1 µg/mL came out at 95.8%. Besides, the inhibition at 10 µg/mL under setting [2] was 99.4%.

In the case of `CC(O)c1ccc(O)c(C(=O)Nc2cc(C(F)(F)F)cc(C(F)(F)F)c2)c1` (stereo not drawn) [Compound 57], under setting [1], the inhibition at 1 µg/mL turned out to be 76.8%. For the same molecule, the inhibition at 10 µg/mL under setting [2] worked out at 96%.
